From publication PMC12040169 (PLOS Biology, 2025)

Assay: in vitro
Conditions: human, hela cells, % viability

Row | Compound | viability at 28.5 h, 10 µM
1 | Cc1cc(F)ccc1S(=O)(=O)N(C(=O)c1ccncc1)c1ccc(OC(=O)c2ccncc2)cc1 [CBK266909] | 91.1%
2 | CN(C)CCCNC(=S)NCc1ccc(Cl)cc1 [CBK266910] | 97.3%
3 | CCC(C)c1ccc(OCC(=O)Nc2ccc3[nH]c(=O)[nH]c3c2)cc1 (centres unmarked) [CBK266911] | 105%
4 | S=C(NCCc1ccccc1)NCCn1cc(Cl)cn1 [CBK266912] | 103%
5 | COc1ccc(Cl)cc1S(=O)(=O)N1CCN(Cc2ccc3c(c2)OCO3)CC1 [CBK266913] | 98.5%
6 | S=C(NCCn1cc(Br)cn1)NCc1ccco1 [CBK266914] | 95.5%
7 | O=C(CC(NC1CCCCC1)C(=O)O)Nc1cccc(Cl)c1 (centres unmarked) [CBK266916] | 98.5%
8 | NS(=O)(=O)c1ccc(NC(S)=Nc2ccc(S(=O)(=O)N3CCCC3)cc2)cc1 [CBK266918] | 80.3%
9 | COc1ccc(Cl)cc1NC(=S)NNC(=O)c1cc(C)nc2ccccc12 [CBK266920] | 50.5%
10 | CC(C)CNC(=S)NNC(=O)CC(C)O (centres unmarked) [CBK266921] | 93.9%
11 | COc1ccc(C(=O)CCC(=O)Nc2cccnc2)c(OC)c1 [CBK266923] | 105%
12 | Cc1ccccc1NC(=O)CC(C(=O)O)N(C)C (centres unmarked) [CBK266924] | 103%
13 | COC(=O)c1c(NC(=S)NCc2ccc(S(N)(=O)=O)cc2)sc2c1CCC2 [CBK266926] | 88.5%
14 | NS(=O)(=O)c1ccc(NC(=S)NNS(=O)(=O)c2ccc(Br)cc2)cc1 [CBK266928] | 111%
15 | COc1ccc(NC(=O)Nc2nn(Cc3ccc(Cl)cc3Cl)cc2Br)cc1OC [CBK266930] | 101%
16 | CN(CC(=O)N1CCC(Cc2ccccc2)CC1)S(=O)(=O)c1ccc2ccccc2c1 [CBK266931] | 78.2%
17 | CS(=O)(=O)N(CC(=O)Nc1ccc(S(=O)(=O)N2CCCCCC2)cc1)c1ccc(F)cc1 [CBK266932] | 91.8%
18 | COC(=O)c1cc(C)sc1NC(=S)Nc1ccn(Cc2ccc(Br)cc2)n1 [CBK266934] | 99.6%

Row | Compound | viability at 28.5 h, 10 µM
19 | COC(=O)c1c(NC(=S)Nc2cnccn2)sc2c1CCC2 [CBK266935] | 90.3%
20 | S=C(Nc1ncn(Cc2ccc(Cl)c(Cl)c2)n1)Nc1ccc(Br)cc1Cl [CBK266940] | 92.7%
21 | CC(=O)c1ccc(NC(=O)NNS(=O)(=O)c2ccc(F)cc2)cc1 [CBK266944] | 109%
22 | COc1ccc(-c2c(C)nn3c(=O)c(Cc4ccccc4)c(C)[nH]c23)cc1 [CBK266951] | 94.2%
23 | CN(C)C(CC(=O)Nc1cccc(Cl)c1Cl)C(=O)O (centres unmarked) [CBK266952] | 107%
24 | Cc1cc(=O)oc2cc(NC(=S)NNC(=O)C3CCN(Cc4ccc(F)cc4Cl)CC3)ccc12 [CBK266953] | 99.4%
25 | COc1ccc(NC(=O)CC(C(=O)O)N2CCOCC2)cc1 (centres unmarked) [CBK266955] | 101%
26 | O=C(O)Cc1ccc(NC(=S)Nc2ccc([N+](=O)[O-])cc2)cc1 [CBK266959] | 98.7%
27 | O=C(Nc1ccc(N2CCN(Cc3ccccc3)CC2)cc1)c1nc[nH]n1 [CBK266960] | 105%
28 | Cn1nc([N+](=O)[O-])nc1Sc1nnnn1-c1ccc(C(=O)O)cc1 [CBK266961] | 109%
29 | COC(=O)c1c(NC(=S)Nc2ccc(Br)cn2)sc2c1CCC(C)C2 (centres unmarked) [CBK266962] | 94.6%
30 | Cc1nn(C)c(C(=O)NNC(=S)Nc2ccc(S(N)(=O)=O)cc2)c1Br [CBK266963] | 92.5%
31 | CN(C)CCNC(=S)Nc1ccc([N+](=O)[O-])cc1 [CBK266964] | 97.7%
32 | CCn1ncc(CN2CCN(C(=S)Nc3ccccc3C(F)(F)F)CC2)c1C [CBK266968] | 96.2%
33 | NS(=O)(=O)c1ccc(NC(=S)NNC(=O)c2cc(Br)ccc2Cl)cc1 [CBK266970] | 89.3%
34 | O=C(CN1C(=O)c2ccccc2S1(=O)=O)Nc1ccccc1C(=O)N1CCOCC1 [CBK266975] | 93.3%
35 | O=C(CC(NC1CCCC1)C(=O)O)Nc1ccc(F)cc1 (centres unmarked) [CBK266976] | 93.9%
